pIC50: −log10 of the molar value. Active and inactive are the calls of the source. No cut-off for these calls is given here.
Legend:
CRMM-1 [1] = assay: Antitumor activity against human CRMM-1 cells xenografted in immunodeficient NCG mouse assessed as mean tumor volume at 10 mg/kg, ip for 28 days administered five times per week (reference value: 540 mm3); format: functional; settings: time 28 day
CRMM-1 [2] = assay: Antitumor activity against human CRMM-1 cells xenografted in immunodeficient NCG mouse assessed as mean tumor volume at 20 mg/kg, ip for 28 days administered five times per week (reference value: 540 mm3); format: functional; settings: time 28 day
CRMM-1 [3] = assay: Antitumor activity against human CRMM-1 cells xenografted in immunodeficient NCG mouse assessed as tumor growth suppression at 10 mg/kg, ip for 28 days administered five times per week relative to control; format: functional; settings: time 28 day
CRMM-1 [4] = assay: Antitumor activity against human CRMM-1 cells xenografted in immunodeficient NCG mouse assessed as tumor growth suppression at 20 mg/kg, ip for 28 days administered five times per week relative to control; format: functional; settings: time 28 day
[5] = Toxicity in immunodeficient NCG mouse xenografted with human CRMM-1 cells assessed as body weight loss at 10 to 20 mg/kg, ip for 28 days administered five times per week; format: organism-based; settings: in vivo, 672 h, dose 10-20 mg/kg, time 28 day
[6] = Toxicity in immunodeficient NCG mouse xenografted with human CRMM-1 cells assessed as change in serum ALT level at 10 to 20 mg/kg, ip for 28 days administered five times per week; format: organism-based; settings: in vivo, 672 h, dose 10-20 mg/kg, time 28 day
[7] = Toxicity in immunodeficient NCG mouse xenografted with human CRMM-1 cells assessed as change in serum AST level at 10 to 20 mg/kg, ip for 28 days administered five times per week; format: organism-based; settings: in vivo, 672 h, dose 10-20 mg/kg, time 28 day
[8] = Toxicity in immunodeficient NCG mouse xenografted with human CRMM-1 cells assessed as change in serum CREA level at 10 to 20 mg/kg, ip for 28 days administered five times per week; format: organism-based; settings: in vivo, 672 h, dose 10-20 mg/kg, time 28 day
[9] = Toxicity in immunodeficient NCG mouse xenografted with human CRMM-1 cells assessed as change in serum urea level at 10 to 20 mg/kg, ip for 28 days administered five times per week; format: organism-based; settings: in vivo, 672 h, dose 10-20 mg/kg, time 28 day
[10] = Toxicity in immunodeficient NCG mouse xenografted with human CRMM-1 cells assessed as pathomorphological change in liver at 10 to 20 mg/kg, ip for 28 days administered five times per week by H and E staining based analysis; format: organism-based; settings: in vivo, 672 h, dose 10-20 mg/kg, time 28 day
[11] = Toxicity in immunodeficient NCG mouse xenografted with human CRMM-1 cells assessed as pathomorphological change in kidney at 10 to 20 mg/kg, ip for 28 days administered five times per week by H and E staining based analysis; format: organism-based; settings: in vivo, 672 h, dose 10-20 mg/kg, time 28 day
[12] = Antiproliferative activity against human CM-AS16 cells assessed as cell growth inhibition incubated for 72 hrs by CCK8 assay; format: functional, cell-based; settings: CM-AS16, 72 h
CRMM-2 = assay: Antiproliferative activity against human CRMM-2 cells assessed as cell growth inhibition incubated for 72 hrs by CCK8 assay; format: functional, cell-based; settings: CRMM-2, 72 h
[13] = Antiproliferative activity against human CM2005.1 cells assessed as cell growth inhibition incubated for 72 hrs by CCK8 assay; format: functional, cell-based; settings: CM2005.1, 72 h
CRMM-1 [14] = assay: Antiproliferative activity against human CRMM-1 cells assessed as cell growth inhibition incubated for 72 hrs by CCK8 assay; format: functional, cell-based; settings: CRMM-1, 72 h
[15] = Antiproliferative activity against human HL7702 cells assessed as cell growth inhibition incubated for 72 hrs by CCK8 assay; format: toxicity, cell-based; settings: HL7702 (L02) cells
[16] = Antiproliferative activity against human PIG1 cells assessed as cell growth inhibition incubated for 72 hrs by CCK8 assay; format: toxicity, cell-based
CRMM-1 [17] = assay: Inhibition of homologous recombination in human CRMM-1 cells at 10 uM incubated for 12 hrs by real-time PCR analysis; format: functional, cell-based
CRMM-1 [18] = assay: Antitumor activity against human CRMM-1 cells xenografted in immunodeficient NCG mouse assessed as mean tumor volume at 10 mg/kg, po for 28 days administered five times per week (reference value: 540 mm3); format: functional; settings: time 28 day
CRMM-1 [19] = assay: Antitumor activity against human CRMM-1 cells xenografted in immunodeficient NCG mouse assessed as tumor growth suppression at 10 mg/kg, po for 28 days administered five times per week relative to control; format: functional; settings: time 28 day
[20] = Toxicity in immunodeficient NCG mouse xenografted with human CRMM-1 cells assessed as pathomorphological change in liver at 10 mg/kg, po for 28 days administered five times per week by H and E staining based analysis; format: organism-based; settings: in vivo, 672 h, time 28 day
[21] = Toxicity in immunodeficient NCG mouse xenografted with human CRMM-1 cells assessed as pathomorphological change in kidney at 10 mg/kg, po for 28 days administered five times per week by H and E staining based analysis; format: organism-based; settings: in vivo, 672 h, time 28 day

Cl.Cl.O=C(CCCc1ccccc1)c1c(OCCCN2CCNCC2)ccc2ccccc12
Activity (CRMM-1 [1]): 390 mm3
Activity (CRMM-1 [2]): 340 mm3
Activity (CRMM-1 [3]): 21%
Activity (CRMM-1 [4]): 33%
Activity [5]: Non-Toxic
Activity [6]: Non-Toxic
Activity [7]: Non-Toxic
Activity [8]: Non-Toxic
Activity [9]: Non-Toxic
Activity [10]: Non-Toxic
Activity [11]: Non-Toxic

C=C(CCc1ccccc1)c1ccccc1OCC(O)CNCCC (centres undefined)
pIC50 [12]: 5.40
pIC50 (CRMM-2): 5.02
pIC50 [13]: 5.04
pIC50 (CRMM-1 [14]): 5.20
IC50 at 72 h [15]: 14.8 µM
IC50 at 72 h [16]: 16.1 µM
inhibition (CRMM-1 [17]): inactive

Cn1cnc2c(F)c(Nc3ccc(Br)cc3F)c(C(=O)NOCCO)cc21 [BINIMETINIB]
Activity (CRMM-1 [18]): 270 mm3
Activity (CRMM-1 [19]): 41%
Activity [20]: Non-Toxic
Activity [21]: Non-Toxic

CCCCCNCCCOc1ccccc1C(=O)CCCc1ccccc1
pIC50 [12]: 5.26
pIC50 (CRMM-2): 5.89
pIC50 [13]: 5.42
pIC50 (CRMM-1 [14]): 5.64
IC50 at 72 h [15]: 2.4 µM
IC50 at 72 h [16]: 1.9 µM
inhibition (CRMM-1 [17]): inactive

Source: ChEMBL document CHEMBL5385901, “Drug repurposing of propafenone to discover novel anti-tumor agents by impairing homologous recombination to delay DNA damage recovery of rare disease conjunctival melanoma” (Eur J Med Chem, 2023)
